Counter-ions that a name gives are not always drawn. Marks after values point to notes of the source that are not given here.
Tested on: rhythmic bladder contractions in urethane-anesthetized rats
Experiment: Rhythmic bladder contractions in urethane-anesthetized rats (Test Example 2)
Type: in vivo
Conditions: mean ± standard error; for Reflex shutdown time: maximum observation period 30 minutes
Description: The urinary frequency and urinary incontinence suppressing activity of a GABA uptake inhibitor was measured as the ability to abolish the rhythmic bladder contractions in urethane-anesthetized rats as an index. An urethra was ligated, a constant volume of physiological saline warmed at 39°C was injected into the bladder to distend the detrusor muscle, and the regular rhythmic bladder contractions at a constant interval were observed. After the stable bladder contractions were confirmed, a compound was administered intravenously to investigate the activities. A time for completely suppressing the rhythmic bladder contractions after the drug administration (reflex shutdown time, a maximum observation period was 30 minutes) and a maximum contractile intravesical pressure at which the bladder contraction appeared again after the administration was measured. […] Table 2 Tiagabin hydrochloride was dissolved in distilled water, other drugs were dissolved in physiological saline, and the drugs were administered intravenously, respectively. Data are shown as mean ± standard error. *P<0.05, **P<0.01 (significance relative to the vehicle-administered control group, nonparametric Dunnett multiple comparison test, two-tailed test) ^#P<0.05 (significance to the values obtained before drug administration, paired t test, two-tailed test). A maximum contractile pressure was calculated from animals from which the bladder constriction was obtained in an observation period.

O=C(O)[C@@H]1CCCN(CCC=C(c2ccccc2)c2ccccc2)C1 [SKF89976A hydrochloride, (R)-1-(4,4-diphenyl-3-butenyl)-3-piperidinecarboxylic acid]
Change in maximum contractile intravesical pressure (Relative to before administration, %) (3 mg/kg intravenously): -7.1±3.1%
Reflex shutdown time (3 mg/kg intravenously): 5.0 ± 1.0 min
Change in maximum contractile intravesical pressure (Relative to before administration, %) (10 mg/kg intravenously): -12.1±11.5%
Reflex shutdown time (10 mg/kg intravenously): 15.7±3.3* min.
Change in maximum contractile intravesical pressure (Relative to before administration, %) (30 mg/kg intravenously): -8.4±10.6%
Reflex shutdown time (30 mg/kg intravenously): 25.1±4.6** min.
